From patent US5322848A, “N-acyl-substituted azacyclic compounds, processes for their preparation, and their use as pharmaceuticals” (Dr. Lo Zembeletti S.p.A., priority 1989, dated 1994)
Structures can show the parent of a compound that is named as a salt.

Key:
Assay type in all cases: in vivo, Male Charles River mice (Swiss Strain)
[1] = test system: mice (p-phenylquinone-induced abdominal writhing); test: P-phenylquinone-induced abdominal writhing test in mice; settings: Mus musculus, sc, 20 min; subcutaneous; 20 min pretreatment; data referred to the free base; read-out: ANALGESIA MOUSE WRITHING ED50
Description: A) P-phenylquinone-induced abdominal writhing rest in mice
The methodology employed is based on that described by Sigmund et al, Proc. Soc. Exptl. Biol. 95, 729/1957, modified by Milne and Twomey, Agents and Actions, 10, 31/1980.
Male Charles River mice (Swiss Strain), 25-36 g body weight, were used. Animals were allowed food and water ad libitum and were randomized into groups of 10 prior to experimentation. Test compounds were dissolved in either distilled water or distilled water plus 0.1 M AMS, and administered by the subcutaneous route in a final volume of 10 ml/Kg. Control animals received 10 ml/Kg of the appropriate vehicle alone. Following a pretreatment period of 20 min., mice were injected intraperitoneally with p-phenylquinone, 2 mg/Kg at 37° C. in a final volume of […]. […] During this period the number of abdominal writhing responses per animal were recorded where writhing consists of an intermittent contraction of the abdomen associated with hind leg extension.
The degree of antinociceptive protection afforded by the test co mound was determined as the mean number of writhing responses observed in the treated group (T) expressed as a percentage of the mean number of writhing response in the control group (C) according to the following formula:
[1-(T/C]×100%=% graded protection

mice (tail-flick) [2] = test: Tail-flick test in mice; settings: 30 min pretreatment, data referred to the free base; for ED50: Mus musculus, sc, 0.5 h, subcutaneous, read-out: ANALGESIA MOUSE TAIL-FLICK ED50; for ANALGESIA MOUSE TAIL-FLICK, % at 10 mg: 10 mg (mg/kg sc)
Description: (§1) B) Tail-flick test in mice
(§2) The methodology employed is based on that described by D'Amour and Smith, J. Pharmacol. Exp. Ther. 72, 74/1941.
(§3) Males Charles River mice (Swiss Strain), 22-34 g body weight were used. Animals were allowed food and water ad libitum and were randomized into groups of 10 prior to experimentation.
Test compounds were dissolved in either distilled water or distilled water plug 0. 1M AMS and administered by the subcutaneous route in a final volume of 10 ml/Kg. Control animals received 10 ml/kg of the appropriate vehicle alone. Following a pretreatment period of 30 min., the mice were again placed under the heat source and the reaction tine re-determined.
(§4) Percentage quantal protection was determined as the number of mice in which the reaction time was doubled compared to pretreatment values, expressed as a percentage of the total number of mice in the group.

mice (tail-flick) [3] = test: Duration of action, mouse tail-flick graded, % activity at MTFQ ED50; settings: sc, data referred to the free base
Description: as §1, §2, §3
Test compounds were dissolved in either distilled water or distilled water plug 0. 1M AMS and administered by the subcutaneous route in a final volume of 10 ml/Kg. Control animals received 10 ml/kg of the appropriate vehicle alone. […]
as §4

With `CC1(C)CCCN(C(=O)Cc2ccc(C(F)(F)F)cc2)C1CN1CCC(O)C1` (stereo not drawn) [Example 5, 1-(4-trifluoromethylphenyl)acetyl-2-(3-hydroxypyrrolidin-1-yl) methyl-3,3-dimethyl piperidine hydrochloride] the ED50 [1] was 0.089 mg/kg, the ED50 (mice (tail-flick) [2]) was 0.225 mg/kg and the “DURATION OF ACTION M. TAIL-FLICK GRADED % ACTIVITY AT MTFQ ED50, 30'” value (mice (tail-flick) [3]) was 78%. The “DURATION OF ACTION M. TAIL-FLICK GRADED % ACTIVITY AT MTFQ ED50, 90'” value (mice (tail-flick) [3]) was 82%.

In the case of `CC1(C)CCCN(C(=O)Cc2ccc(Cl)c(Cl)c2)C1CN1CCC(O)C1` (stereo not drawn) [Example 6, 1-(3,4-dichlorophenyl)acetyl-2-(3-hydroxypyrrolidin-1-yl)methyl-3,3-dimethyl piperidine hydrochloride], the ED50 [1] is reported as 0.081 mg/kg, the ED50 (mice (tail-flick) [2]) is reported as 0.233 mg/kg and the “DURATION OF ACTION M. TAIL-FLICK GRADED % ACTIVITY AT MTFQ ED50, 30'” value (mice (tail-flick) [3]) is reported as 87%. For the same compound, the “DURATION OF ACTION M. TAIL-FLICK GRADED % ACTIVITY AT MTFQ ED50, 90'” value (mice (tail-flick) [3]) was 100%.

With `CC1(C)CCN(C(=O)Cc2ccc(Cl)c(Cl)c2)C(CN2CCC(O)C2)C1` (stereo not drawn) [Example 7, 1-(3,4-dichlorophenyl)acetyl-2-(3-hydroxypyrrolidin-1-yl)methyl-4,4-dimethyl piperidine hydrochloride hemihydrate] the ED50 [1] was 0.037 mg/kg, the ED50 (mice (tail-flick) [2]) was 0.25 mg/kg and the “DURATION OF ACTION M. TAIL-FLICK GRADED % ACTIVITY AT MTFQ ED50, 30'” value (mice (tail-flick) [3]) was 84%. For the same compound, the “DURATION OF ACTION M. TAIL-FLICK GRADED % ACTIVITY AT MTFQ ED50, 90'” value (mice (tail-flick) [3]) was 74%.

`C[C@]1(O)CCN(C[C@H]2CCCCN2C(=O)Cc2ccc(Cl)c(Cl)c2)C1.Cl` [Example 9, (R,S)-1-(3,4-dichlorophenyl)acetyl-2-(3-hydroxy-3-methylpyrrolidin-1-yl) methyl piperidine hydrochloride] was tested, and the “ANALGESIA MOUSE TAIL-FLICK, % at 10 mg” value (mice (tail-flick) [2]) was 40%.

`CC1(C)CN(C(=O)Cc2ccc(Cl)c(Cl)c2)C(CN2CCC(O)C2)c2ccccc21` (stereo not drawn) [Example 14, 1-(3-hydroxypyrrolidin-1-yl)methyl-2-(3,4-dichlorophenyl)acetyl 4,4-dimethyl-1,2,3,4-tetrahydroisoquinoline hydrochloride] was tested, and the ED50 [1] was 0.087 mg/kg, the ED50 (mice (tail-flick) [2]) was 0.898 mg/kg and the “DURATION OF ACTION M. TAIL-FLICK GRADED % ACTIVITY AT MTFQ ED50, 30'” value (mice (tail-flick) [3]) was 93%. The “DURATION OF ACTION M. TAIL-FLICK GRADED % ACTIVITY AT MTFQ ED50, 90'” value (mice (tail-flick) [3]) was 85%.

In the case of `O=C1CCCc2cc(CC(=O)N3CCCCC3CN3CCC(O)C3)ccc21` (stereo not drawn) [Example 17, 1-[1-oxo-3,4-dihydro-(2H)-napht-6-yl]acetyl-2-(3-hydroxy-pyrrolidin-1-yl)methyl piperidine], the ED50 [1] is reported as 1.78 mg/kg, the ED50 (mice (tail-flick) [2]) is reported as 3.24 mg/kg and the “DURATION OF ACTION M. TAIL-FLICK GRADED % ACTIVITY AT MTFQ ED50, 30'” value (mice (tail-flick) [3]) is reported as 78%. For the same compound, the “DURATION OF ACTION M. TAIL-FLICK GRADED % ACTIVITY AT MTFQ ED50, 90'” value (mice (tail-flick) [3]) was 80%.

In the case of `O=C(Cc1ccc(Cl)c(Cl)c1)N1CCCCC1CN1CCC(F)C1` (stereo not drawn) [Example 18, 1-(3,4-dichlorophenyl)acetyl-2-(3-fluoropyrrolidin-1-yl)methyl piperidine hydrochloride], the ED50 [1] is reported as 0.002 mg/kg, the ED50 (mice (tail-flick) [2]) is reported as 0.021 mg/kg and the “DURATION OF ACTION M. TAIL-FLICK GRADED % ACTIVITY AT MTFQ ED50, 30'” value (mice (tail-flick) [3]) is reported as 80%. The “DURATION OF ACTION M. TAIL-FLICK GRADED % ACTIVITY AT MTFQ ED50, 90'” value (mice (tail-flick) [3]) was 34%.

With `COC1CCN(CC2CCCCN2C(=O)Cc2ccc(Cl)c(Cl)c2)C1` (stereo not drawn) [Example 19, 1-(3,4-dichlorophenyl)acetyl-2-(3-methoxypyrrolidin-1-yl)methyl piperidine] the “ANALGESIA MOUSE TAIL-FLICK, % at 10 mg” value (mice (tail-flick) [2]) was 80%.

`COC1CCN(CC2CCCCN2C(=O)Cc2ccc(C(F)(F)F)cc2)C1` (stereo not drawn) [Example 20, 1-(4-trifluoromethylphenyl)acetyl-2-(3-methoxypyrrolidin-1-yl) methyl piperidine] was tested, and the “ANALGESIA MOUSE TAIL-FLICK, % at 10 mg” value (mice (tail-flick) [2]) was 80%.

In the case of `O=C1CCCc2cc(CC(=O)N3CCCCC3CN3CCC(F)C3)ccc21` (stereo not drawn) [Example 22, 1-[1-oxo-3,4-dihydro-(2H)-napht-6-yl]acetyl-2-(3-fluoropyrrolidin-1-yl)methyl piperidine hydrochloride], the ED50 [1] is reported as 0.005 mg/kg, the ED50 (mice (tail-flick) [2]) is reported as 0.065 mg/kg and the “DURATION OF ACTION M. TAIL-FLICK GRADED % ACTIVITY AT MTFQ ED50, 30'” value (mice (tail-flick) [3]) is reported as 75%. For the same compound, the “DURATION OF ACTION M. TAIL-FLICK GRADED % ACTIVITY AT MTFQ ED50, 90'” value (mice (tail-flick) [3]) was 40%.

`CC1(C)CCCN(C(=O)Cc2ccc(C(F)(F)F)cc2)C1CN1CCC(F)C1` (stereo not drawn) [Example 23, 1-(4-trifluoromethylphenyl)acetyl-2-(3-fluoropyrrolidin-1-yl) methyl-3,3-dimethylpiperidine hydrochloride] was tested, and the ED50 [1] was 0.003 mg/kg, the ED50 (mice (tail-flick) [2]) was 0.005 mg/kg and the “DURATION OF ACTION M. TAIL-FLICK GRADED % ACTIVITY AT MTFQ ED50, 30'” value (mice (tail-flick) [3]) was 90%. The “DURATION OF ACTION M. TAIL-FLICK GRADED % ACTIVITY AT MTFQ ED50, 90'” value (mice (tail-flick) [3]) was 86%.

In the case of `CC1(C)CCN(C(=O)Cc2ccc3c(c2)CCCC3=O)C(CN2CCC(F)C2)C1` (stereo not drawn) [Example 25, 1-[1-oxo-3,4-dihydro-(2H)-napht-6-yl]acetyl-2-(3-fluoropyrrolidin-1-yl)methyl-4,4-dimethyl piperidine hydrochloride], the ED50 [1] is reported as 0.005 mg/kg, the ED50 (mice (tail-flick) [2]) is reported as 0.47 mg/kg and the “DURATION OF ACTION M. TAIL-FLICK GRADED % ACTIVITY AT MTFQ ED50, 30'” value (mice (tail-flick) [3]) is reported as 74%. For the same compound, the “DURATION OF ACTION M. TAIL-FLICK GRADED % ACTIVITY AT MTFQ ED50, 90'” value (mice (tail-flick) [3]) was 56%.
